# What was measured:
# Assay in all cases: competitive TR-FRET assay, BET-BD with acetylated peptide ligand
# Assay type in all cases: binding
# BRD2-BD2 = BRD2-BD2 (Homo sapiens (Human), UniProt P25440); settings: for EC50: BRD2-BD2, Table 11 additional modifications, read-out: 2.2 EC50; for 2.1/2.2: ratio of BRD2-BD1 EC50 to BRD2-BD2 EC50 (selectivity)
# Description: (§1) Inhibitor potency was determined using a competitive TR-FRET assay as detailed herein, measuring interaction of the respective BET-BD with an acetylated peptide ligand (Table 2).
# BRD2-BD1 = BRD2-BD1 (Homo sapiens (Human), UniProt P25440); settings: BRD2-BD1; Table 11 additional modifications; read-out: 2.1 EC50
# Description: as §1
# BRDT = BRDT (Homo sapiens, UniProt Q58F21); settings: BRDT; Table 11 additional modifications; read-out: BRDT EC50
# Description: as §1
# BRD3-BD1 = BRD3-BD1 (Homo sapiens (Human), UniProt Q15059); settings: BRD3-BD1; Table 11 additional modifications; read-out: 3.1 EC50
# Description: as §1
# BRD4-BD1 = BRD4-BD1 (Homo sapiens (Human), UniProt O60885); settings: BRD4-BD1; Table 11 additional modifications; read-out: 4.1 EC50
# Description: as §1
# BRD3-BD1, sequence (Q15059 34-140): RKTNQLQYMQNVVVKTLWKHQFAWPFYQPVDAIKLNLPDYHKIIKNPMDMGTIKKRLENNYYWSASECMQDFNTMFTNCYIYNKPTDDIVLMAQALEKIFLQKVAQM
# BRD2-BD1, sequence (P25440 74-180): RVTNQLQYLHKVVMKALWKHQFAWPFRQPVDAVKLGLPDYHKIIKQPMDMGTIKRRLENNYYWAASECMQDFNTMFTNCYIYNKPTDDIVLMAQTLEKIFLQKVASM
# BRD2-BD2, sequence (P25440 344-453): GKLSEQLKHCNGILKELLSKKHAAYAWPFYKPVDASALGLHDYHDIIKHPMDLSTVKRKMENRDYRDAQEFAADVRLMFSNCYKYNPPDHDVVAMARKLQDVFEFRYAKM
EC50 (BRD2-BD2),2.1/2.2 (BRD2-BD2),EC50 (BRD2-BD1),EC50 (BRDT),EC50 (BRD3-BD1),EC50 (BRD4-BD1),SMILES
23 nM,20,470 nM,> 36000 nM,78 nM,1100 nM,CC(=O)Nc1cccc(-c2ccc3c(c2)[C@H](Nc2ccc(CN)cc2)C[C@H](C)N3C(C)=O)c1 [compound 26]
35 nM,6.3,220 nM,660 nM,310 nM,2100 nM,CC(=O)Nc1cccc(-c2ccc3c(c2)[C@H](Nc2ccc(-c4nnn(C)n4)cc2)C[C@H](C)N3C(C)=O)c1 [compound 27]
10 nM,–,> 52000 nM,> 52000 nM,> 52000 nM,> 52000 nM,CC(=O)Nc1cccc(-c2ccc3c(c2)[C@H](Nc2ccc(-c4nnnn4C)cc2)C[C@H](C)N3C(C)=O)c1 [compound 28]
8 nM,58,460 nM,300 nM,260 nM,1200 nM,CC(=O)Nc1cccc(-c2ccc3c(c2)[C@H](Nc2ccc(C#N)cc2)C[C@H](C)N3C(C)=O)c1 [compound 29]
20 nM,145,2900 nM,4800 nM,9800 nM,> 70000 nM,CC(=O)Nc1cccc(-c2ccc3c(c2)[C@H](Nc2ccc(C(=O)CO)cc2)C[C@H](C)N3C(C)=O)c1 [compound 30]
20 nM,44,880 nM,1200 nM,290 nM,590 nM,CC(=O)Nc1cccc(-c2ccc3c(c2)[C@H](Nc2cccc4ncccc24)C[C@H](C)N3C(C)=O)c1 [compound 31]
> 23000 nM,–,> 23000 nM,> 23000 nM,> 23000 nM,> 23000 nM,CC(=O)Nc1cccc(-c2ccc3c(c2)[C@H](Nc2cccc4ccccc24)C[C@H](C)N3C(C)=O)c1 [compound 32]
10000 nM,–,> 4900 nM,> 4900 nM,> 4900 nM,> 4900 nM,CC(=O)Nc1cccc(-c2ccc3c(c2)[C@H](Nc2cccc4cccnc24)C[C@H](C)N3C(C)=O)c1 [compound 33]
20 nM,21,410 nM,890 nM,510 nM,5100 nM,CC(=O)Nc1cccc(-c2ccc3c(c2)[C@H](Nc2ccc(-c4nnco4)cc2)C[C@H](C)N3C(C)=O)c1 [compound 34]
12 nM,6.7,80 nM,140 nM,130 nM,2500 nM,CC(=O)Nc1cccc(-c2ccc3c(c2)[C@H](Nc2ccc(-c4nnc(C)o4)cc2)C[C@H](C)N3C(C)=O)c1 [compound 35]
120 nM,4.6,580 nM,1200 nM,150 nM,380 nM,CC(=O)N1c2ccc(-c3cccc(NS(C)(=O)=O)c3)cc2[C@H](NC(=O)OC(C)C)C[C@@H]1C [compound 93]
170 nM,1.2,2000 nM,84000 nM,430 nM,1400 nM,CC(=O)N1c2ccc(-c3cccc(NC(=O)C4CC4)c3)cc2[C@H](NC(=O)OC(C)C)C[C@@H]1C [compound 94]
420 nM,1.2,3100 nM,510 nM,380 nM,2000 nM,CC(=O)N1c2ccc(-c3cccc(NC(=O)c4ccc(C)cc4)c3)cc2[C@H](NC(=O)OC(C)C)C[C@@H]1C [compound 95]
790 nM,11,2600 nM,6200 nM,830 nM,1900 nM,CC(=O)N1c2ccc(-c3cccc(NCC(C)C)c3)cc2[C@H](NC(=O)OC(C)C)C[C@@H]1C [compound 96]
2500 nM,4.8,100000 nM,40000 nM,7800 nM,20000 nM,CC(=O)N1c2ccc(-c3ccnn3C)cc2[C@H](NC(=O)OC(C)C)C[C@@H]1C [compound 97]
120 nM,15,1500 nM,1200 nM,240 nM,900 nM,CC(=O)N1c2ccc(-c3cccc(NC(=O)C(C)C)c3)cc2[C@H](NC(=O)OC(C)C)C[C@@H]1C [compound 98]
120 nM,12,940 nM,730 nM,250 nM,1000 nM,CC(=O)N1c2ccc(-c3cccc(NC(=O)C4CCCCC4)c3)cc2[C@H](NC(=O)OC(C)C)C[C@@H]1C [compound 99]
40000 nM,7.3,3800 nM,40000 nM,690 nM,6000 nM,CC(=O)N1c2ccc(-c3cccc(NCCC(C)C)c3)cc2[C@H](NC(=O)OC(C)C)C[C@@H]1C [compound 100]

EC50 (BRD2-BD2),2.1/2.2 (BRD2-BD2),EC50 (BRD2-BD1),EC50 (BRDT),EC50 (BRD3-BD1),EC50 (BRD4-BD1),SMILES
110 nM,3.3,1100 nM,1300 nM,340 nM,950 nM,CCCC(=O)Nc1cccc(-c2ccc3c(c2)[C@H](NC(=O)OC(C)C)C[C@H](C)N3C(C)=O)c1 [compound 101]
430 nM,40,4800 nM,1200 nM,530 nM,3800 nM,CC(=O)N1c2ccc(-c3cccc(NC(=O)C4CCC(C)CC4)c3)cc2[C@H](NC(=O)OC(C)C)C[C@@H]1C (some centres unmarked) [compound 102]
2800 nM,13,3700 nM,4800 nM,890 nM,3500 nM,CC(=O)N1c2ccc(-c3cccc(NCc4ccc(C)cc4)c3)cc2[C@H](NC(=O)OC(C)C)C[C@@H]1C [compound 103]
290 nM,7.8,1600 nM,1600 nM,410 nM,940 nM,CC(=O)N1c2ccc(-c3cccc(NC(=O)CC(C)C)c3)cc2[C@H](NC(=O)OC(C)C)C[C@@H]1C [compound 104]
30 nM,0.095,400 nM,1100 nM,100 nM,200 nM,CC(=O)N1c2ccc(-c3cccc(NCC4CCOC4)c3)cc2[C@H](NC(=O)OC(C)C)C[C@@H]1C (some centres unmarked) [compound 105]
43000 nM,10,3900 nM,7000 nM,980 nM,3300 nM,CC(=O)N1c2ccc(-c3cccc(NCCC(C)(C)C)c3)cc2[C@H](NC(=O)OC(C)C)C[C@@H]1C [compound 106]
160 nM,11,1200 nM,490 nM,170 nM,810 nM,CC(=O)N1c2ccc(-c3cccc(NC(=O)c4ccccc4)c3)cc2[C@H](NC(=O)OC(C)C)C[C@@H]1C [compound 107]
360 nM,1.3,2500 nM,59000 nM,370 nM,1700 nM,CC(=O)N1c2ccc(-c3cccc(NCC4CC4)c3)cc2[C@H](NC(=O)OC(C)C)C[C@@H]1C [compound 108]
280 nM,5.6,11000 nM,11000 nM,670 nM,> 11000 nM,CC(=O)N1c2ccc(-c3cccc(NCCCc4ccccc4)c3)cc2[C@H](NC(=O)OC(C)C)C[C@@H]1C [compound 109]
120 nM,14,1300 nM,1600 nM,230 nM,1100 nM,CC(=O)N1c2ccc(-c3cccc(NC(=O)Cc4ccccc4)c3)cc2[C@H](NC(=O)OC(C)C)C[C@@H]1C [compound 110]
520 nM,0.091,1900 nM,3900 nM,650 nM,1800 nM,CCCNc1cccc(-c2ccc3c(c2)[C@H](NC(=O)OC(C)C)C[C@H](C)N3C(C)=O)c1 [compound 111]
2500 nM,3.6,7200 nM,4400 nM,2100 nM,5000 nM,CC(=O)N1c2ccc(-c3cccc(NCC4CCCCC4)c3)cc2[C@H](NC(=O)OC(C)C)C[C@@H]1C [compound 112]
110 nM,4.8,2200 nM,7500 nM,410 nM,1400 nM,CC(=O)N1c2ccc(-c3cccc(NC(=O)C(C)(C)C)c3)cc2[C@H](NC(=O)OC(C)C)C[C@@H]1C [compound 113]
50 nM,9.1,790 nM,52000 nM,120 nM,470 nM,CCCCNc1cccc(-c2ccc3c(c2)[C@H](NC(=O)OC(C)C)C[C@H](C)N3C(C)=O)c1 [compound 114]
1800 nM,4.6,20000 nM,> 84000 nM,27000 nM,–,CC(=O)N1c2ccc(-c3cccc(NC4CCCC4)c3)cc2[C@H](Nc2ccccc2OC(F)(F)F)C[C@@H]1C [compound 154]
5700 nM,2.6,17000 nM,> 84000 nM,79000 nM,–,CCCN(CCC)c1cccc(-c2ccc3c(c2)[C@H](Nc2ccccc2OC(F)(F)F)C[C@H](C)N3C(C)=O)c1 [compound 155]
–,–,> 30000 nM,> 30000 nM,> 30000 nM,> 30000 nM,COc1cc(F)ccc1N[C@@H]1C[C@H](C)N(C(C)=O)c2ccc(-c3cccc(CNCC(F)(F)F)c3)cc21 [compound 169]

# — US11028051B2, “Tetrahydroquinoline-based bromodomain inhibitors” (St. Jude Children's Research Hospital, priority 2016, dated 2021)
